Test results taken from US20180271987A1, “Controlled Cell Delivery Vehicle and Treatment of Tumours” (The University of Nottingham, priority 2015, published 2018).

B1: heparinase III: enzyme used to deplete cell membrane GAGs (protein, UniProt Q59289 25-659, looked up)
Heparin-sulfate lyase: QSSSITRKDFDHINLEYSGLEKVNKAVAAGNYDDAAKALLAYYREKSKAREPDFSNAEKPADIRQPIDKVTREMADKALVHQFQPHKGYGYFDYGKDINWQMWPVKDNEVRWQLHRVKWWQAMALVYHATGDEKYAREWVYQYSDWARKNPLGLSQDNDKFVWRPLEVSDRVQSLPPTFSLFVNSPAFTPAFLMEFLNSYHQQADYLSTHYAEQGNHRLFEAQRNLFAGVSFPEFKDSPRWRQTGISVLNTEIKKQVYADGMQFELSPIYHVAAIDIFLKAYGSAKRVNLEKEFPQSYVQTVENMIMALISISLPDYNTPMFGDSWITDKNFRMAQFASWARVFPANQAIKYFATDGKQGKAPNFLSKALSNAGFYTFRSGWDKNATVMVLKASPPGEFHAQPDNGTFELFIKGRNFTPDAGVFVYSGDEAIMKLRNWYRQTRIHSTLTLDNQNMVITKARQNKWETGNNLDVLTYTNPSYPNLDHQRSVLFINKKYFLVIDRAIGEATGNLGVHWQLKEDSNPVFDKTKNRVYTTYRDGNNLMIQSLNADRTSLNEEEGKVSYVYNKELKRPAFVFEKPKKNAGTQNFVSIVYPYDGQKAPEISIRENKGNDFEKGKLNLTLTINGKQQLVLVP

Test system: NIH3t3: LSL-eGFP cells
Test: Cre recombination assay (eGFP activation)
Format: cell-based, mouse
Conditions: cells pre-treated with the agent
Excerpt: Previous studies have the avoided issues associated with direct measurement of fluorescent-tagged proteins (such as being unable to distinguish membrane, vesicle or functional cytosolic/nuclear protein) by assaying for the successful nuclear activity of Cre recombinase {Gump, 2010 #2}. This system was used to measure Cre-mediated recombination of a loxP-STOP-loxP (LSL) enhanced green fluorescent protein (eGFP) reporter gene in live NIH3t3 mouse fibroblast cells (NIH3t3: LSL-eGFP cells) as an indicator of cellular uptake (FIG. 18a). This system is rigorous as activation of green fluorescence requires exogenous Cre protein to enter the cell, undergo nuclear-translocation and excise the LSL fragment of the transgene. This must occur in live cells and be non-toxic for the subsequent expression of eGFP. […] To overcome this issue Cre proteins were delivered at limiting dilutions for a short exposure time (1 hour) and the minimum dose required to activate green fluorescence after 48 hours (FIG. 18c) was determined.
To measure Cre Recombinase activity the NIH3t3: LSL-eGFP cell line was created using the pZ/EG plasmid transfection and G-418 selection {Novak, 2000 #6}. […] 2×10^5 cells/well were plated (in 12-well plates), pre-incubated them in DMEM without serum for 1 hour and treated with Cre proteins (0-500 μg/ml) in DMEM without serum. After the Cre incubation cells were trypsinized, replated into complete media and incubated for 2 days. Cells were pre-treated with drugs for the stated time-period in DMEM without serum, were included in Cre-transduction medium and were added after replating. […] After incubations cell were trypsinized, washed, fixed in 4% PFA and % recombined cells was determined by flow cytometry. For mR-Cre-8R and P21-mR-Cre-8R comparisons concentrations of 100 μg/ml and 10 μg/ml were used, respectively and data was expressed as % maximum recombination (i.e. the % relative to the maximum recombination achieved at the stared dose of Cre).

Molecule | effect of drug or enzyme treatment on functional delivery / recombination of HETD-tagged Cre protein
N=C(N)NC(=O)c1nc(Cl)c(N)nc1N [Amiloride] | dose-dependent reduction of functional transduction into cells
C=C1[C@@H](C)[C@H]2[C@H](Cc3ccccc3)NC(=O)[C@]23[C@H](OC(C)=O)/C=C/[C@@](C)(O)C(=O)[C@@H](C)C/C=C/[C@H]3[C@@H]1O [Cytochalasin D] | dose-dependent reduction of functional transduction into cells
C[C@@H]1[C@H](O)[C@@H](C)/C=C/C=C/CC/C=C/C=C/C=C/C=C/C(O[C@H]2O[C@H](C)[C@@H](O)[C@H](N)[C@@H]2O)CC2O[C@](O)(CC(O)C(O)CCC(O)CC(O)CC(O)CC(=O)O[C@H]1C)CC(O)C2C(=O)O (stereo partly drawn) [nystatin] | dose-dependent inhibition of functional delivery
methyl-β-cyclodextrin | dose-dependent inhibition of functional delivery
B1 | reduced recombination to basal-levels

Test system: cells
Test: not given
Conditions: literature; cited from earlier work

Molecule | increase of nanoparticle uptake [%]
Arg-Gly-Asp [RGD] | 50
